{
  "source": "paper PMC7377239",
  "about": "“Cardiovascular Effects of Polychlorinated Biphenyls and Their Major Metabolites” (Environmental Health Perspectives, 2020)",
  "system": "iCell cardiomyocytes (human iPSC-derived cardiomyocytes)",
  "experiment": "Intracellular Ca2+ flux / beating parameters in iCell cardiomyocytes (FLIPR tetra), 90 min or 24 h",
  "format": "cell-based",
  "settings": "for inotropic effect (cell beating parameters): iPSC-CMs, concentration-response 0.01-100 μM, 90 min and 24 h; for activity at 0.01 µM / activity at 0.1 µM / activity at 1 µM / activity at 10 µM / activity at 100 µM: Homo sapiens, Cardiomyocyte, 0.00 µM = 100.00; for activity at 0.1 µM: 0.10 µM",
  "procedure": "Details on cardiomyocyte cell culture are described in detail elsewhere ([Grimm et al. 2015b]; [Sirenko et al. 2013a]). Briefly, tissue-culture treated 384 well plates were gelatinized with 25μL per well of 0.1% (w/v) gelatin in water for 2 h at 37°C and 5% CO2 . Individual vials of cells were thawed for 4 min in a water bath maintained at 37°C. Thawed cells were resuspended in 10ml plating medium containing 1:500 (vol/vol) penicillin/streptomycin solution at room temperature (RT). Live cell counts for each cell suspension were determined by trypan blue staining and cells were further diluted to provide final cell densities of 2×10^5 viable cells/ml. Thus, 5,000 cells suspended in 25μL media were transferred per well after the gelatin solution had been discarded. Cell culture plates were rested for 30 min at RT before they were incubated for 48 h at 37°C and 5% CO2 . Then, a media exchange with 30μL of fresh maintenance medium containing 1:500 (vol/vol) penicillin/streptomycin solution was performed, and cell media were subsequently changed every 48 h for 12 d. On the experiment day, the medium was completely exchanged with either 25μL (for Ca^2+ flux assay) or 40μL (for imaging) of fresh medium.\nResponses of iCell®-cardiomyocytes to drugs and chemicals were evaluated using intracellular Ca^2+ flux measurements ([Grimm et al. 2015b]; [Sirenko et al. 2013b]). For experiments, 20 mM stock solutions of PCBs and PCB metabolites were prepared in DMSO ( 200× ). Chemical working solutions ( 5× ) were prepared using cardiomyocyte maintenance medium and contained 2.5% (vol/vol) DMSO. These chemical master plates were prepared to include all chemicals in concentration–response (0.05, 0.5, 5, 50, and 500μM ). Negative controls included media-only and vehicle control (i.e., 0.5% vol/vol DMSO in cell culture media) wells. Positive assay controls were consistent with previously published reports ([Grimm et al. 2018]) and included TAB ( 50μM ) as a cytotoxic control, and isoproterenol ( 0.1–10μM ), propranolol ( 0.1–5 μM ), cisapride ( 0.01–1μM ), and doxorubicin ( 0.1–5μM ) as chemicals associated with specific effects on beating and ion flux. Each test chemical was screened in triplicate for each concentration.\nExperiments started with the addition of 25μL of prewarmed 2× concentrated calcium dye reagent to sample wells containing 25μL maintenance media. Microplates were then acclimated for 2 h at 37°C. Following equilibration, cardiomyocyte sample wells were treated simultaneously by the addition of 12.5μL of prewarmed 5× chemical solution to iCell®-cardiomyocytes using the automated liquid handler in the FLIPR tetra (Molecular Devices). Treated cell cultures were incubated for either 90 min or 24 h. After the conclusion of the treatment period, the Ca^2+ flux was measured for 100 s at a frequency of 8 Hz using the integrated fluorescence plate reader in the FLIPR tetra (Molecular Devices) using an emission wavelength range of λemission=515–575 nm ( λexcitation=470–495 nm ). Additional instrument settings included exposure time per read of 0.05s, a gain of 2000, an excitation intensity of 30%, and an internal temperature of 37°C.\nCa^2+ flux data were processed in R studio (version 1.0.136, with R version 3.3.2; R Development Core Team) as described elsewhere ([Blanchette et al. 2019]; [Burnett et al. 2019]). Calculated quantitative metrics included the means and coefficients of variation (CV) of the peak height, which can be indicative of cytotoxicity, inhibition, or stimulation of beating. Means of peak frequency, an indicator of positive or negative […], and CV of peak spacing, an indicator of irregular beating, were also derived from Ca^2+ flux traces. Finally, the mean ratio of the decay over rise time was calculated. Increases in the decay/rise time ratio are reflective of delayed repolarization and are a measure for QT prolongation. […]",
  "key": {"[1]": {"settings": "1.5 h, read-out: cm.amp.avg.90min"}, "[2]": {"settings": "1.5 h, read-out: cm.amp.cv.90min"}, "[3]": {"settings": "1.5 h, read-out: cm.decay.rise.90min"}, "[4]": {"settings": "1.5 h, read-out: cm.spacing.cv.90min"}, "[5]": {"settings": "24 h, read-out: cm.amp.avg.24hrs"}, "[6]": {"settings": "24 h, read-out: cm.amp.cv.24hrs"}, "[7]": {"settings": "24 h, read-out: cm.decay.rise.24hrs"}, "[8]": {"settings": "24 h, read-out: cm.spacing.cv.24hrs"}},
  "note": "Where a name gives a salt, the structure may show the parent alone. Read-outs that look alike come from different tables or passages of the source.",
  "data": [
    {"smiles": "COc1ccc(-c2ccc(Cl)cc2)cc1", "note": "[4'-OMe-PCB 3, 4′-methoxy-4-chlorobiphenyl]", "values": [
      {"measurement": "inotropic effect (cell beating parameters)", "value": "positive inotropic effects"}
    ]},
    {"smiles": "Clc1ccc(-c2cc(Cl)c(Cl)c(Cl)c2)cc1Cl", "note": "[PCB 126, 3,3′,4,4′,5-pentachlorobiphenyl]", "values": [
      {"measurement": "inotropic effect (cell beating parameters)", "value": "positive inotropic effects"}
    ]},
    {"smiles": "O=S(=O)(O)Oc1ccc(-c2cccc(Cl)c2)cc1Cl", "note": "[4-yl PCB 11 sulfate]", "values": [
      {"measurement": "activity at 0.01 µM", "setting": "[1]", "value": 98.2, "unit": "%"},
      {"measurement": "activity at 0.01 µM", "setting": "[2]", "value": 88.2, "unit": "%"},
      {"measurement": "activity at 0.01 µM", "setting": "1.5 h, read-out: cm.bpm.90min", "value": 97.8, "unit": "%"},
      {"measurement": "activity at 0.01 µM", "setting": "[3]", "value": 98.1, "unit": "%"},
      {"measurement": "activity at 0.01 µM", "setting": "[4]", "value": 99.6, "unit": "%"},
      {"measurement": "activity at 0.1 µM", "setting": "[1]", "value": 93.1, "unit": "%"},
      {"measurement": "activity at 0.1 µM", "setting": "[2]", "value": 97.2, "unit": "%"},
      {"measurement": "activity at 0.1 µM", "setting": "1.5 h, read-out: cm.bpm.90min", "value": 100, "unit": "%"},
      {"measurement": "activity at 0.1 µM", "setting": "[3]", "value": 102, "unit": "%"},
      {"measurement": "activity at 0.1 µM", "setting": "[4]", "value": 99, "unit": "%"},
      {"measurement": "activity at 1 µM", "setting": "[1]", "value": 99.5, "unit": "%"},
      {"measurement": "activity at 1 µM", "setting": "[2]", "value": 116, "unit": "%"},
      {"measurement": "activity at 1 µM", "setting": "1.5 h, read-out: cm.bpm.90min", "value": 99.1, "unit": "%"},
      {"measurement": "activity at 1 µM", "setting": "[3]", "value": 99.7, "unit": "%"},
      {"measurement": "activity at 1 µM", "setting": "[4]", "value": 103, "unit": "%"},
      {"measurement": "activity at 10 µM", "setting": "[1]", "value": 96.9, "unit": "%"},
      {"measurement": "activity at 10 µM", "setting": "[2]", "value": 93.4, "unit": "%"},
      {"measurement": "activity at 10 µM", "setting": "1.5 h, read-out: cm.bpm.90min", "value": 99.1, "unit": "%"},
      {"measurement": "activity at 10 µM", "setting": "[3]", "value": 98.1, "unit": "%"},
      {"measurement": "activity at 10 µM", "setting": "[4]", "value": 96.5, "unit": "%"},
      {"measurement": "activity at 100 µM", "setting": "[1]", "value": 45.7, "unit": "%"},
      {"measurement": "activity at 100 µM", "setting": "[2]", "value": 62.5, "unit": "%"},
      {"measurement": "activity at 100 µM", "setting": "1.5 h, read-out: cm.bpm.90min", "value": 15.1, "unit": "%"},
      {"measurement": "activity at 100 µM", "setting": "[3]", "value": 39.8, "unit": "%"},
      {"measurement": "activity at 100 µM", "setting": "[4]", "value": 107, "unit": "%"},
      {"measurement": "activity at 0.01 µM", "setting": "[5]", "value": 98.1, "unit": "%"},
      {"measurement": "activity at 0.01 µM", "setting": "[6]", "value": 94.2, "unit": "%"},
      {"measurement": "activity at 0.01 µM", "setting": "24 h, read-out: cm.bpm.24hrs", "value": 97.4, "unit": "%"},
      {"measurement": "activity at 0.01 µM", "setting": "[7]", "value": 110, "unit": "%"},
      {"measurement": "activity at 0.01 µM", "setting": "[8]", "value": 104, "unit": "%"},
      {"measurement": "activity at 0.1 µM", "setting": "[5]", "value": 78.9, "unit": "%"},
      {"measurement": "activity at 0.1 µM", "setting": "[6]", "value": 34.3, "unit": "%"},
      {"measurement": "activity at 0.1 µM", "setting": "24 h, read-out: cm.bpm.24hrs", "value": 46.8, "unit": "%"},
      {"measurement": "activity at 0.1 µM", "setting": "[7]", "value": 51.8, "unit": "%"},
      {"measurement": "activity at 0.1 µM", "setting": "[8]", "value": 46.3, "unit": "%"},
      {"measurement": "activity at 1 µM", "setting": "[5]", "value": 88.9, "unit": "%"},
      {"measurement": "activity at 1 µM", "setting": "[6]", "value": 119, "unit": "%"},
      {"measurement": "activity at 1 µM", "setting": "24 h, read-out: cm.bpm.24hrs", "value": 93.6, "unit": "%"},
      {"measurement": "activity at 1 µM", "setting": "[7]", "value": 100, "unit": "%"},
      {"measurement": "activity at 1 µM", "setting": "[8]", "value": 87.1, "unit": "%"},
      {"measurement": "activity at 10 µM", "setting": "[5]", "value": 88.7, "unit": "%"},
      {"measurement": "activity at 10 µM", "setting": "[6]", "value": 119, "unit": "%"},
      {"measurement": "activity at 10 µM", "setting": "24 h, read-out: cm.bpm.24hrs", "value": 93.6, "unit": "%"},
      {"measurement": "activity at 10 µM", "setting": "[7]", "value": 104, "unit": "%"},
      {"measurement": "activity at 10 µM", "setting": "[8]", "value": 98.9, "unit": "%"},
      {"measurement": "activity at 100 µM", "setting": "[5]", "value": 0, "unit": "%"},
      {"measurement": "activity at 100 µM", "setting": "[6]", "value": 0, "unit": "%"},
      {"measurement": "activity at 100 µM", "setting": "24 h, read-out: cm.bpm.24hrs", "value": 0, "unit": "%"},
      {"measurement": "activity at 100 µM", "setting": "[7]", "value": 0, "unit": "%"},
      {"measurement": "activity at 100 µM", "setting": "[8]", "value": 0, "unit": "%"}
    ]}
  ]
}
